Data on one compound can be found in patent US20250171420A1 (Monte Rosa Therapeutics, Inc., priority 2022, published 2025).

Bounds are passed on as bounds.

One data set has as its target T1, CK1α (Homo sapiens, UniProt P48729).
T1 construct: HEK293 clonal lines with CRISPR KI HiBiT tag on CSNK1A1
Kind of data set: CK1α NanoBit Assay (HiBiT-tagged CSNK1A1, HEK293 clonal lines). In kind it is cell-based. Conditions: HEK293 HiBiT-CSNK1A1/LgBiT cells, 24 h incubation. Put shortly:
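HEK293 clones carrying a CRISPR knock-in HiBiT tag on CSNK1A1 and stably expressing LgBiT are treated with compound for 24 hours at 37° C, 5% CO2, then read by luminescence. Response is normalized as 100*(S−N)/(P−N) against plate negative and positive controls, and DC50 values are derived.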
(In general: The HiBiT peptide binds its large partner to form an active luciferase.)

Another data set concerns SKCO1 cell line. Kind of data set: Growth inhibition, CyQUANT Direct Cell Proliferation Assay, SKCO1. It is filed as cell-based. The conditions noted are these: Homo sapiens, SK-CO-1; SKCO1, 120 to 168 hours; read-out: SKCO1 GI50. An outline of the steps: (§1)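 Cells seeded 300 to 1,800 per well, day-0 CyQUANT Direct read after overnight attachment; 9-point 3-fold dilutions from 30 μM top concentration, 120 to 168 h exposure, 0.3% DMSO control. Fluorescence Ex/Em 480/520 nm; growth inhibition normalised to day-0 and untreated day-N signals, GI50 at 50% of untreated control.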

Another data set relates to CW2 cell line. Kind of data set: Growth inhibition, CyQUANT Direct Cell Proliferation Assay, CW2. Conditions: Homo sapiens, CW-2; CW2, 120 to 168 hours; read-out: CW2 GI50. In kind it is cell-based. Put shortly: as §1
The subject of the next data set is GP2D cell line. Kind of data set: Growth inhibition, CyQUANT Direct Cell Proliferation Assay, GP2D. It is filed as cell-based. Conditions: GP2D, 120 to 168 hours; read-out: GP2D GI50. An outline of the steps:
as §1

A further data set relates to LS180 cell line. Put plainly: Growth inhibition, CyQUANT Direct Cell Proliferation Assay, LS180. The conditions noted are these: Homo sapiens; LS180, 120 to 168 hours; read-out: LS180 GI50. It is filed as cell-based. An outline of the steps: as §1
The subject of the next data set is LS174T cell line. Put plainly: Growth inhibition, CyQUANT Direct Cell Proliferation Assay, LS174T. Conditions: Homo sapiens, 120 to 168 hours, read-out: LS174T GI50. It is filed as cell-based. Put shortly:
as §1

Data set [1] can be described thus: Oral pharmacokinetics in male BALB/c mice. In kind it is in vivo. Conditions: mouse, PO 10 mg/kg, plasma, mean ± SD. On the procedure:
Male BALB/c mice were administered a discrete, oral (PO) dose of Compound 288, Compound 335, Compound 102, or Compound 303 at 10 mg/kg; all mice were fasted except for mice that were dosed with Compound 288. Male BALB/c mice were fasted overnight and administered a cassette dose, PO dose of Compound 303 and other compounds at 5 mg/kg per compound.
Blood samples were collected serially from three animals/time-point following PO administration of the test compounds to the mice and placed in tubes containing K2EDTA. The blood samples were centrifuged, and the aliquots of the resulting plasma stored frozen at −60 to −90° C.
The plasma samples were analyzed by LC-MS/MS to determine concentrations of the test compounds. The in-life portion of the study and the bioanalysis of plasma samples was conducted at Wuxi (China).
The pharmacokinetic parameters for the tested compounds were calculated by non-compartmental analysis using Phoenix WinNonlin software.

T1 sequence (P48729 whole entry): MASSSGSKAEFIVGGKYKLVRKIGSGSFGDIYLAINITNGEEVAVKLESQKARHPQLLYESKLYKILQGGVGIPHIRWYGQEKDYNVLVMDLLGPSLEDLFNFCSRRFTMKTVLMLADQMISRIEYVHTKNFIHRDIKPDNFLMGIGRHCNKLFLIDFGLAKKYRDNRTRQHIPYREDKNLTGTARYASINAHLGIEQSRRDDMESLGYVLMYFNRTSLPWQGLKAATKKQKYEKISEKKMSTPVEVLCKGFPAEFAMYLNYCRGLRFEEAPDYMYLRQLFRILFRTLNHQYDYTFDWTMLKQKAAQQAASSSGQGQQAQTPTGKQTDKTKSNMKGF
T1 sequence (Q96SW2 whole entry, further chain): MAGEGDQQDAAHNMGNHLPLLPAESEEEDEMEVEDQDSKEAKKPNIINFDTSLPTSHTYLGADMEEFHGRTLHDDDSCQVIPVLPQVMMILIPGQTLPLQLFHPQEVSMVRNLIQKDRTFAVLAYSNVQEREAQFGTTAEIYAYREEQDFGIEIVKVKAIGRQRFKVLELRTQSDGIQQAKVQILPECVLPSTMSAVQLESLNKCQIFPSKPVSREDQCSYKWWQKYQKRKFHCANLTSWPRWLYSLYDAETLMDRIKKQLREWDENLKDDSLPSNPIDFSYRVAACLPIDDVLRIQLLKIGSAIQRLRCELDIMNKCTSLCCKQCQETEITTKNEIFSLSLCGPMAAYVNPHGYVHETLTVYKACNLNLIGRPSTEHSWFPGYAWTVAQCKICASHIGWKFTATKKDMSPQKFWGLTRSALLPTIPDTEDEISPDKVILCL
T1 sequence (Q16531 2-1140 partner limits assumed): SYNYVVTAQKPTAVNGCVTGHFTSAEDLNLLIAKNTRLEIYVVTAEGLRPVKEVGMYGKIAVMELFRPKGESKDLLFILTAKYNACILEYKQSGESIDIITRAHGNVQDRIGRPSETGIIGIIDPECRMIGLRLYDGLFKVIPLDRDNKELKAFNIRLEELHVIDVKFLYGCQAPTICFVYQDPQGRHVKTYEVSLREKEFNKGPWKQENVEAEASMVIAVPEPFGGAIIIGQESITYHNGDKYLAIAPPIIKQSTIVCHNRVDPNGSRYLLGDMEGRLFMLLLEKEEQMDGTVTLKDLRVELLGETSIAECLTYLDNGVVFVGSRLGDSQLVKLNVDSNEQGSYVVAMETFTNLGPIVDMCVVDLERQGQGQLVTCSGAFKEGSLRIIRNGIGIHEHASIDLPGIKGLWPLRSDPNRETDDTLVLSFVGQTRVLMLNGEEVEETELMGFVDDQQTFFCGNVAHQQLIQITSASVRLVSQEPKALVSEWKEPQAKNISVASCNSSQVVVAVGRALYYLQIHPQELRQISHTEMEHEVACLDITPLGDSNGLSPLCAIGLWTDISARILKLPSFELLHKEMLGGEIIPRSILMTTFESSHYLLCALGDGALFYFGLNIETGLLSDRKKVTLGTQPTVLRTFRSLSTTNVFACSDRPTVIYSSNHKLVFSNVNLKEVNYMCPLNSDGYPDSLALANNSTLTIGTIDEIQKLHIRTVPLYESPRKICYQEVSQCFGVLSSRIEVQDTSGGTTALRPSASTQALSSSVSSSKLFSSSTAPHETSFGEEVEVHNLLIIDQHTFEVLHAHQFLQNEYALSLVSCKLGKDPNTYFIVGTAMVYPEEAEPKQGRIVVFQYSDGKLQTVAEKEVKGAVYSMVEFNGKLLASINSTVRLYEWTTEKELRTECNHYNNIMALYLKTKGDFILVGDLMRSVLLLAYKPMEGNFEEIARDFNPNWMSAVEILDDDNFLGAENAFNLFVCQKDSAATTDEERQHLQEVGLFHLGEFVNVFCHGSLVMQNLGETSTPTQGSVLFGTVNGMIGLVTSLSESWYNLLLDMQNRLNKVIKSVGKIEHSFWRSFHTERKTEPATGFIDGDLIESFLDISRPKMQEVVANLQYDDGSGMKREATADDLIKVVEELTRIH

What is called GI50 is the concentration at which growth is held to half of that of the control. A word on the AUC: it is the area under the concentration-time curve, a measure of exposure. A higher AUC goes with high exposure. A word on the AUC(0-t): it is the area under the concentration-time curve up to a stated or last time point. Low readings indicate less exposure, high ones more exposure. The Cmax is the peak of the concentration-time curve. As a reminder, the Tmax is the time from dosing to the highest level. `C[C@@H]1Cc2ccccc2N1C(=O)Nc1ccc2c(c1)CN(C1CCC(=O)NC1=O)C2=O` (stereo partly drawn) [Compound 102, (2R)—N-(2-(2,6-dioxopiperidin-3-yl)-1-oxoisoindolin-5-yl)-2-methylindoline-1-carboxamide] came in with a DC50 at CK1α of under 0.1 µM. The GI50 is under 100 nM in the data set on SKCO1 cell line; under 100 nM in the data set on CW2 cell line; 100 to 1000 nM in the data set on GP2D cell line; 100 to 1000 nM in the data set on LS180 cell line; 100 to 1000 nM with LS174T cell line. The same compound showed an AUC in data set [1] of 1040 ± 245 ng·h/mL. Besides, the AUC(0-t) in data set [1] came out at 889 ± 218 ng·h/mL. Moreover, in data set [1], the Cmax was 361 ± 142 ng/mL. Further, the Tmax in data set [1] was 1.33 ± 0.58 h.
